Data published in patent US20050069999A1, “Sh3 domain binding inhibitors” (priority 2001, published 2005).

Assays:
[1] = target: T1, Sam68ΔC and Fyn-SH3 binding (Homo sapiens, UniProt Q07666); assay: SH3 domain binding inhibition test 1: Sam68ΔC bound to Fyn-SH3 beads, Western blot; inhibition ratio from band intensity (Test Examples 1 and 4); parameters: species or system recombinant human Sam68ΔC; mouse recombinant Fyn SH3 domain; conditions: for inhibition at 60 µM / inhibition at 150 µM: read-out: The inhibition ratio (%) of the compound against SH3 domain binding
T1 construct: (Sam68ΔC) [Sam68(331-443): made by Santa Cruz Co.]; purchased Santa Cruz Sam68(331-443); Fyn(85-139) AC
Procedure: (1) Treatment of Proteins Containing the Proline-Rich Sequences with the Compounds.
The recombinant human Sam68 containing the 2 proline-rich sequences at the C terminal out of 5 proline-rich sequences in Sam68 containing proline-rich sequences (Sam68ΔC) [Sam68(331-443): made by Santa Cruz Co.], 0.25 μg was added to 1 mL of RSB buffer (10 mmol/L Tris-HCl, pH 7.6, 10 mmol/L NaCl, 1.5 mmol/L MgCl2), which is a hypotonic buffer solution containing 0.1% BSA (bovine serum albumin) [bovine serum albumin (F-V): made by Nakaraitesk] to prepare a Sam68ΔC solution. The compound was dissolved in dimethylsulfoxide (DMSO) to prepare a 10 mmol/L solution in DMSO. […] The same amount of DMSO was added to each sample. The compound was subjected to the reaction with Sam68ΔC by incubating the mixture at 37° C. for 6 hours with rotation by a roller culture machine.
(2) Treatment of Proteins Containing the SH3 Domain with the Proteins Containing the Proline-Rich Sequences Treated with the Compounds.
The Sam68ΔC solution treated with the compound, which was obtained in (1), was applied to 5 μL of Fyn-SH3-agarose beads (Fyn-SH3 beads) [Fyn(85-139) AC; made by Santa Crutz Co.], which was a mouse recombinant protein of the Fyn SH3 domain containing the SH3 domain bound to agarose beads. The binding reaction of the Sam68ΔC reacted with the compounds with Fyn-SH3 beads containing the SH3 domain were carried out at 4° C. for 16 hours with slow rotation by the roller culture machine. After the reaction, a resulting complex of Sam68ΔC and Fyn-SH3 beads was precipitated by centrifugation at […] for 3 minutes at 4° C., and then 1 mL of the TritonX/Np40 extraction buffer containing detergents [50 mmol/L Tris-HCl buffer, pH 7.4, 150 mmol/L NaCl, 1 mmol/Lethylenediaminetetraacetic acid (EDTA), 1% TritonX-100, 0.5% Nonidet P-40] was added thereto. The mixture was rotated slowly at 4° C. for 10 minutes by the roller culture machine, and precipitated and washed twice in a similar manner to that as described above. To the complex of Sam68ΔC and Fyn-SH3 beads washed above, 30 μL of Lemery's sample buffer [Protein Chemistry I-Isolation and Purification, Tokyo Kagaku Dojin, p. 211 (1976)] was added, and then the mixture was mixed well and heated at 100° C. for 10 minutes. After precipitating the beads at 1000 ppm for 5 minutes at 25° C. by a centrifuge, the supernatant was subjected to 10% polyacrylamide gel electrophoresis.
(3) Detection of Sam68ΔC Bound to the Fyn-SH3 by Western Blotting.
Sam68ΔC in the supernatant was detected by Western blotting as follows. First, the resulting gel performed the electrophoresis, which was obtained in (2), was blotted onto a nitrocellulose membrane with pore size of 0.45 μm [Protran; made by Schleicher and Schuell Co.]. After non-specific binding of the membrane was blocked by incubating the membrane at 4° C. overnight in phosphate buffer (PBS) containing 0.25% gelatin and 0.2% Tween-20 (PBS-TG), the membrane reacted with mouse anti GST antibody conjugated with horse radish peroxidase (HRP) [GST (B-14) HRP; made by Santa Crutz Co.], which was diluted 1000 times with PBS-TG, for 2 hours. After washing with PBS containing 0.2% Tween 20 (PBS-T), the detection was carried out by the chemo-luminescence reaction using ECL reagent (Amersham Pharmacia Biotech Co.).
The inhibition ratios of the compound against the SH3 domain binding were calculated as follows based on the plot of the results of the Test Example 1. The intensity of the chemo-luminescent bands of Fyn-SH3 and Sam68ΔC developed on a film was measured by a gel-scanner (TYOBO). The relative intensity of Sam68ΔC band against the intensity of Fyn-SH3 band was obtained by dividing the Sam68ΔC band intensity by the Fyn-SH3 band intensity. The ratio of the Fyn-SH3 band intensity to the Sam68ΔC band intensity was set to be 100% when no compound was added. […]

HIV-1 LAI strain = assay: HIV-1 growth inhibition test (RT assay) in MT2 cells; type: cell-based; conditions: MT2 cells, 3, 5, 7 and 9 days after infection; 1, 5, 10, 25 and 50 mmol/L as printed; FIGS. 9-11 Compound 1, FIGS. 12-14 PP2
Procedure: (1) HIV-1 Infection and Growth Inhibition Experiment.
MT2 cells (T cell strain) were suspended in RPMI1640 medium (GIBCO No.26140-076) supplemented with 10% fetal calf serum (GIBCO, No.26140-079) at 2×10^5 cells/mL and distributed into the each well of 24 well plates (24 well plate: Coster No. 3526) by 1 mL per well. HIV-1 LAI strain {pLAI that contains DNA clone of the whole genome [GeneBank accession No. K02013 Virology 185:661 (1991)] was transfected to HeLa cells by using FuGENE6 Transfection Reagent (Roche Co. No. 1814443), incubated for 2 days and the supernatant was used.} was inoculated to each well at a final concentration of 500 cpm/μL and incubated at 37° C. overnight (virus infection). […]
HIV-1 was determined by the RT assay (Reverse Transcriptase sassy) according to the method described in J. Virol., Vol. 38, p. […]
To 5 μL of the culture supernatant obtained in (1), 25 μL of RT cocktail {50 mmol/L Tris-HCl pH 7.5, 50 mmol/L EDTA, 75 mmol/L KCl, 5 mmol/L MgCl2, 5 μg/mL Poly(A) [Pharmacia, No. 27-4110-01], 1.6 μg/mL oligo(dT)12-18 [Pharmacia, No. 27-7858-01], 5 mmol/L DTT (dithiothreitol), 0.05% NP-40 and 10 PCi/ml [α-^32P]dTTP} was added, and the mixture was incubated at 37° C. for 2 hours. […] The amount of HIV-1 was measured as RT activity count (cpm/μL) with a MICROBRTA PLUS liquid scintillation counter (Perkin Elmer). […]

MT2 cells = assay: Cyto-toxicity test, Trypan blue live cell count; type: cell-based; conditions: 10 μmol/L, incubated for 3 days
Procedure: MT2 cells (T cell strain) were suspended in RPMI1640 medium (GIBCO, No. 26140-076) supplemented with 10% fetal calf serum (GIBCO, No. 26140-079) at 2×10^5 cells/mL and distributed into each well of 96 well plates [96 well plate: Coster] at 100 μL per well. The compound was added to each well and incubated for 3 days. The cultures were observed under a microscope to examine the condition of cells and cells were harvested, stained with 0.4% Trypan blue (SIGMA, T-8154) and live cells were counted.

[2] = Concentration of the compound 20 μmol/L
[3] = Concentration of the compound 100 μmol/L
[4] = Concentration of the compound 60 μmol/L
[5] = Concentration of the compound 150 μmol/L

T1 sequence (Q07666 331-443, stated change not applied): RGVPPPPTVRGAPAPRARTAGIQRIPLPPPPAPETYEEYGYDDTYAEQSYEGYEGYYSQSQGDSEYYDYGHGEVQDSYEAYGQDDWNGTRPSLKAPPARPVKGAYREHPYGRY

Q: For C[C@H]1C/C=C/[C@H]2[C@@H]3O[C@]3(C)[C@@H](C)[C@H]3[C@H](Cc4ccccc4)NC(=O)[C@]32OC(=O)O/C=C/[C@@](C)(O)C1=O [Compound 13, Cytochalasin E], which “The inhibition ratio (%) of the compound against SH3 domain binding” value (shortened to “The inhibition ratio (%) of the compound”) [1, 2] is on record?
A: Its value is 0%.

Q: And the “The inhibition ratio (%) of the compound” value [1, 3]?
A: The value was 21%.

Q: How did the inhibition at 60 µM [1, 4] turn out when C/C1=C\CC(=O)OC23C(=O)NC(Cc4ccc(O)cc4)C2C(C)C2(C)OC2C3/C=C/CC(C)C1=O (stereo not drawn) [Compound 16] was run?
A: Its inhibition at 60 µM is 67%.

Q: What about the inhibition at 150 µM [1, 5] of the same molecule?
A: Its inhibition at 150 µM is 78%.

Q: Which inhibition at 150 µM [1, 5] does the source give for COc1ccc(CC2NC(=O)C34OC(=O)OCCC(C)(O)C(=O)C(C)C/C=C/C3C3OC3(C)C(C)C24)cc1 (stereo not drawn) [Compound 17] here?
A: Its inhibition at 150 µM is 36%.

Q: How did the inhibition at 60 µM [1, 4] turn out when C=C1C(C)C2C(Cc3ccc(OC)cc3)NC(=O)C23OC(=O)O/C=C/C(C)(O)C(=O)C(C)C/C=C/C3C1O (stereo not drawn) [Compound 18] was run?
A: Its inhibition at 60 µM is 16%.

Q: And the inhibition at 150 µM [1, 5]?
A: Its inhibition at 150 µM is 67%.

Q: COc1ccc(CC2NC(=O)C34OC(=O)O/C=C/C(C)(O)C(=O)C(C)C/C=C/C3C(O)C(C)=C(C)C24)cc1 (stereo not drawn) [Compound 19] was tested. Which inhibition at 150 µM [1, 5] did it give?
A: Its inhibition at 150 µM is 40%.

Q: What does the source list for CC1=CC2/C=C(\C)CCC(O)C(O)/C=C/C(=O)OC23C(=O)NC(CC(C)C)C3C1C (stereo not drawn) [Compound 20]?
A: inhibition at 60 µM [1, 4]: 92%; inhibition at 150 µM [1, 5]: 100%

Q: With CC1=CC2/C=C(\C)CCCC(O)/C=C/C(=O)OC23C(=O)NC(CC(C)C)C3C1C (stereo not drawn) [Compound 21] as the molecule, how does the inhibition at 60 µM [1, 4] read?
A: The inhibition at 60 µM was 64%.

Q: What about the inhibition at 150 µM [1, 5] of the same molecule?
A: Its inhibition at 150 µM is 100%.

Q: Which inhibition at 60 µM [1, 4] does the source give for CC1=CC(/C=C(\C)CCC=O)C2(C(=O)/C=C/C=O)C(=O)NC(CC(C)C)C2C1C (stereo not drawn) [Compound 22] here?
A: Its inhibition at 60 µM is 91%.

Q: And the inhibition at 150 µM [1, 5]?
A: Its inhibition at 150 µM is 100%.

Q: For CC1=CC2/C=C(\C)CCC(=O)C(=O)CCC(=O)C23C(=O)NC(CC(C)C)C3C1C (stereo not drawn) [Compound 24, Aspochalasin A], which inhibition at 60 µM [1, 4] is on record?
A: The inhibition at 60 µM was 62%.

Q: And the inhibition at 150 µM [1, 5]?
A: The inhibition at 150 µM was 80%.

Q: Which inhibition at 60 µM [1, 4] does the source give for CC1=CC2/C=C(\C)CCC(O)C(=O)/C=C/C(=O)C23C(=O)NC(CC(C)C)C3C1C (stereo not drawn) [Compound 25, Aspochalasin B] here?
A: Its inhibition at 60 µM is 87%.

Q: And the inhibition at 150 µM [1, 5]?
A: Its inhibition at 150 µM is 100%.

Q: Which results are given for CC1=CC2/C=C(\C)CCC(O)C(O)/C=C/C(=O)C23C(=O)NC(CC(C)C)C3C1C (stereo not drawn) [Compound 26, Aspochalasin C]?
A: inhibition at 60 µM [1, 4]: 92%; inhibition at 150 µM [1, 5]: 100%

Q: Which results are given for CC1=CC2/C=C(\C)CCC(O)C(O)/C=C/C(=O)C23C(=O)NC(CC(C)C)C3C1C (stereo not drawn) [Compound 27, Aspochalasin D]?
A: The inhibition ratio (%) of the compound against SH3 domain binding [1, 4]: 100%; The inhibition ratio (%) of the compound against SH3 domain binding [1, 5]: 100%

Q: What does the source list for CC1=CC2/C=C(\C)CCC(O)C(O)C(O)CC(=O)C23C(=O)NC(CC(C)C)C3C1C (stereo not drawn) [Compound 28, Aspochalasin E]?
A: inhibition at 60 µM [1, 4]: 31%; inhibition at 150 µM [1, 5]: 73%

Q: CC(C)(C)n1nc(-c2ccc(Cl)cc2)c2c(N)ncnc21 [pp2, 4-amino-5-(4-chrolophenyl)-7-(tert-butyl)-pyrazolo[3,4-d]pyrimidine] was tested. Which “amount of HIV-1 (RT activity count)” value (HIV-1 LAI strain) did it give?
A: The value was “increased”.

Q: Which results are given for Mer-WF1726 [Compound 12]?
A: The inhibition ratio (%) of the compound against SH3 domain binding [1, 2]: 39%; The inhibition ratio (%) of the compound against SH3 domain binding [1, 3]: 88%

Q: UCS15A [Compound 1] was tested. Which “The inhibition ratio (%) of the compound” value [1, 4] did it give?
A: The value was 0%.

Q: And the “The inhibition ratio (%) of the compound” value [1, 5]?
A: The value was 46%.

Q: What about the “live cells (Trypan blue)” value (MT2 cells) of the same molecule?
A: Its value is “live cells were not decreased”.
